# Source: patent US6194451A, “Matrix metalloproteinase inhibitors” (Pharmacia & Upjohn S.p.A., priority 1997, dated 2001)
# Legend:
# [1] = molecular target: T1, MMP-1 (human interstitial collagenase) (Homo sapiens, UniProt P03956); assay: Biochemical Assay (Protocol A): inhibition of human collagenase, fluorimetric peptide substrate; conditions: MMP-1, pH 7.4, 37° C.
# T1 construct: truncated recombinant enzyme encompassing residues 101-269
# T1 sequence (P03956 101-269): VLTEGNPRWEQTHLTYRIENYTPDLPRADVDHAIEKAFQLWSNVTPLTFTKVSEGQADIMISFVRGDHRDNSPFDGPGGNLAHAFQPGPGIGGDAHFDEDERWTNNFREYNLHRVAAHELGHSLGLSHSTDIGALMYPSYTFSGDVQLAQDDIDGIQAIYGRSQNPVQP
# Text: (§1) As mentioned above, although low molecular weight MMP inhibitors, including hydroxamates of general formula (A), are already known, there is a strong need for better and diversified molecules for their use in medicine, that is in particular in the control or prevention of degenerative joint diseases such as rheumatoid arthritis and osteoarthritis, or in the management of multiple sclerosis, or in the treatment of invasive tumors. […] For example, the following protocol was used to assess the biochemical activity of compounds of formula (I) against MMP-1, MMP-2, and MMP-3 (respectively, human interstitial collagenase, gelatinase A, and stromelysin-1).
# (§2) Human gelatinase-A (MMP-2) was obtained as pro-enzyme (72 kDa) and was activated with 1 mM 4-aminophenylmercuric acetate for 30 min at 37° C. immediately prior to use. Human stromelysin-1 (MMP-3) was obtained as a recombinant pro-enzyme isolated either from E. coli or from baculovirus infected Sf9 insect cells and activated either by heat (1 h, 55° C.) or by 5 mg/l trypsin (30 min, 37° C.) before addition of soybean trypsin inhibitor, finally removed by centrifugation.
# (§3) All enzyme assays to determine values of the enzyme-inhibitor dissociation constants were performed using the peptide substrate (7-methoxycoumarin-4-yl)Acetyl-Pro-Leu-Gly-Leu-(3-[2,4-dinitrophenyl]-L-2,3-diaminopropionyl)-Ala-Arg-NH2 (Mca-Pro-Leu-Gly-Leu-Dpa-Ala-Arg--NH2) (C. G. Knight et al., FEBS Lett. 296:263-266, 1992). The enzymes cleave at the Gly-Leu bond removing the internally quenching Dpa group. The release of the highly fluorescent peptide Mca-Pro-Leu was followed fluorimetrically setting the excitation wavelength at 326 nm (bandwidth 5 nm) and the emission at 392 nm (bandwidth 20 nm).
# (§4) Continuous fluorescence assay was carried out using a Perkin Elmer LS-50 Fluorescence Spectrophotometer fitted with a thermostatted four position stirring cell changer. Inhibitors were dissolved in the assay buffer ([…] Tris/HCl pH 7.4 containing 0.15 M NaCl, 10 mM CaCl2, 0.01 mM ZnCl2 and 0.05% Brij 35) thermostatted at 37° C. The reaction was started by the addition of substrate ([…]), followed by the addition of the enzyme (e.g. 1.0 nM collagenase, 0.04 nM gelatinase, or 3.0 nM stromelysin) and the increase in fluorescence was monitored over 30 min. The run was repeated at different concentrations of inhibitors in the range 0.1-10000 nM and data at inhibitor concentration in the region if their enzyme-inhibitor dissociation constants were used for calculation.
# (§5) Substrate consumption was within 5% of the initial concentration and data outside this range were discarded. The Michaelis constants (Km) for the enzyme-substrate complexes is […] or greater (C. G. Knight et al., reference above), so that the factor (1+S/Km) can be approximated to unity without appreciable error.
# [2] = molecular target: T2, MMP-3 (human stromelysin-1) (Homo sapiens, UniProt P08254); assay: Biochemical Assay (Protocol A): inhibition of human stromelysin-1, fluorimetric peptide substrate; conditions: MMP-3, pH 7.4, 37° C.
# T2 construct: host or cells: E. coli or baculovirus-infected Sf9 insect cells
# Text: as §1, §2, §3, §4, §5
# [3] = molecular target: T3, MMP-2 (human gelatinase A) (Homo sapiens, UniProt P08253); assay: Biochemical Assay (Protocol A): inhibition of human gelatinase A, fluorimetric peptide substrate; conditions: MMP-2, pH 7.4, 37° C.
# T3 sequence (P08253 110-660): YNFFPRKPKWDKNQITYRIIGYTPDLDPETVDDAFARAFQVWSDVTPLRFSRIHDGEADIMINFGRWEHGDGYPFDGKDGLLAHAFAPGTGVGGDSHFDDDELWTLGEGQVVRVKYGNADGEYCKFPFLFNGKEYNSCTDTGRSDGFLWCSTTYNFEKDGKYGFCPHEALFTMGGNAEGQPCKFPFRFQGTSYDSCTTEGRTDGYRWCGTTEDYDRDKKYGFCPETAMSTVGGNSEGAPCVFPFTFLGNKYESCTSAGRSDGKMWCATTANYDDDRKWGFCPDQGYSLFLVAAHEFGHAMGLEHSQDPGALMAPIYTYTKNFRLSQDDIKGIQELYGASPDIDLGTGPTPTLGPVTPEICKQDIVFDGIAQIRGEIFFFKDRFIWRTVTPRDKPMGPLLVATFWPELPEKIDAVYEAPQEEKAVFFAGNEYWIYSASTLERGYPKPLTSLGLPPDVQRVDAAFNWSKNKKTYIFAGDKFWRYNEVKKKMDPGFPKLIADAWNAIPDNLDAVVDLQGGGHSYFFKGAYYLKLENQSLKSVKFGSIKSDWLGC
# Text: as §1, §2, §3, §4, §5
# Aqueous solubility = assay type: physicochemical; conditions: water, pH 7.0, 25° C.
# Experimental: Further, several compounds of formula (I), in particular when R2 is hydroxy, and when R1 is hydroxymethyl, have enhanced water solubility as compared to the vast majority of MMP inhibitors of the prior art. An aqueous solubility threshold, which may vary widely but can be roughly set in the range of 1-10 mg/mL, makes systemic administration easy, and more than often is essential to good oral bioavailability.
# T2 sequence (P08254 100-477): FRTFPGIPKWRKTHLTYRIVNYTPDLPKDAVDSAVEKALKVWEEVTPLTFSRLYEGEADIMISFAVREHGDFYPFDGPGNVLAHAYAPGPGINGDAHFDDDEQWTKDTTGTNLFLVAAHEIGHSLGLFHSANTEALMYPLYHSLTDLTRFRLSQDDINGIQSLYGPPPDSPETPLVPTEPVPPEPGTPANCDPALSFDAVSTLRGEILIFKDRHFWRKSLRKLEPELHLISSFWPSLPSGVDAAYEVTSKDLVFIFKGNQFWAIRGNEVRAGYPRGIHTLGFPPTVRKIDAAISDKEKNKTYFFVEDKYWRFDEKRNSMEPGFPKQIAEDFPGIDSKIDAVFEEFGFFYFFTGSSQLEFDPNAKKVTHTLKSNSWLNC
smiles,measurement,setting,value
CNC(=O)[C@@H](NC(=O)[C@H](CC(C)C)[C@](O)(CO)C(=O)NO)C(C)(C)C [Example 3],Ki,[1],2.3 nM
same,Ki,[2],150 nM
same,Ki,[3],9.2 nM
same,solubility,Aqueous solubility,> 15 mg/mL
